Reference: PubChem BioAssay AID1259407 (Chemical Carcinogenesis Research Information System (CCRIS), 2018)
Calls of active or inactive are those of the source. How the calls were made is not given here.

Tested on: CCRIS mutagenicity, Ames/micronucleus/aberration tests
Experiment: CCRIS mutagenicity studies
[1] = Test System: AMES SALMONELLA TYPHIMURIUM, Strain/Indicator: TA98, Metabolic Activation: NONE, Method: PREINCUBATION
[2] = Test System: AMES SALMONELLA TYPHIMURIUM, Strain/Indicator: TA100, Metabolic Activation: NONE, Method: PREINCUBATION
[3] = Test System: AMES SALMONELLA TYPHIMURIUM, Strain/Indicator: TA102, Metabolic Activation: NONE, Method: PREINCUBATION
[4] = Test System: AMES SALMONELLA TYPHIMURIUM, Strain/Indicator: TA102, Metabolic Activation: NONE, Method: STANDARD PLATE
[5] = Test System: AMES SALMONELLA TYPHIMURIUM, Strain/Indicator: TA104, Metabolic Activation: NONE, Method: PREINCUBATION
[6] = Test System: AMES SALMONELLA TYPHIMURIUM, Strain/Indicator: TA1535, Metabolic Activation: NONE, Method: PREINCUBATION
[7] = Test System: AMES SALMONELLA TYPHIMURIUM, Strain/Indicator: TA1537, Metabolic Activation: NONE, Method: PREINCUBATION
[8] = Test System: AMES SALMONELLA TYPHIMURIUM, Strain/Indicator: TA100, Metabolic Activation: NONE, Method: STANDARD PLATE
[9] = Test System: AMES SALMONELLA TYPHIMURIUM, Strain/Indicator: TA100, Metabolic Activation: RAT, LIVER, S-9, AROCLOR 1254, Method: STANDARD PLATE
[10] = Test System: AMES SALMONELLA TYPHIMURIUM, Strain/Indicator: TA98, Metabolic Activation: NONE, Method: STANDARD PLATE
[11] = Test System: AMES SALMONELLA TYPHIMURIUM, Strain/Indicator: TA98, Metabolic Activation: RAT, LIVER, S-9, AROCLOR 1254, Method: STANDARD PLATE
[12] = Test System: AMES SALMONELLA TYPHIMURIUM, Strain/Indicator: TA1538, Metabolic Activation: NONE, Method: STANDARD PLATE

Compound: CC(=O)CC(=O)Nc1ccc(C)cc1
- mutagenic call [1]: inactive; negative
- mutagenic call (Test System: AMES SALMONELLA TYPHIMURIUM, Strain/Indicator: TA98, Metabolic Activation: RAT, LIVER, S-9, PHENOBARBITAL AND BETA-NAPHTHOFLAVONE, Method: PREINCUBATION): inactive; negative
- mutagenic call [2]: inactive; negative
- mutagenic call (Test System: AMES SALMONELLA TYPHIMURIUM, Strain/Indicator: TA100, Metabolic Activation: RAT, LIVER, S-9, PHENOBARBITAL AND BETA-NAPHTHOFLAVONE, Method: PREINCUBATION): inactive; negative
- mutagenic call [3]: inactive; negative
- mutagenic call [4]: inactive; negative
- mutagenic call (Test System: AMES SALMONELLA TYPHIMURIUM, Strain/Indicator: TA102, Metabolic Activation: RAT, LIVER, S-9, PHENOBARBITAL AND BETA-NAPHTHOFLAVONE, Method: PREINCUBATION): inactive; negative
- mutagenic call [5]: inactive; negative
- mutagenic call (Test System: AMES SALMONELLA TYPHIMURIUM, Strain/Indicator: TA104, Metabolic Activation: RAT, LIVER, S-9, PHENOBARBITAL AND BETA-NAPHTHOFLAVONE, Method: PREINCUBATION): inactive; negative
- mutagenic call [6]: inactive; negative
- mutagenic call (Test System: AMES SALMONELLA TYPHIMURIUM, Strain/Indicator: TA1535, Metabolic Activation: RAT, LIVER, S-9, PHENOBARBITAL AND BETA-NAPHTHOFLAVONE, Method: PREINCUBATION): inactive; negative
- mutagenic call [7]: inactive; negative
- mutagenic call (Test System: AMES SALMONELLA TYPHIMURIUM, Strain/Indicator: TA1537, Metabolic Activation: RAT, LIVER, S-9, PHENOBARBITAL AND BETA-NAPHTHOFLAVONE, Method: PREINCUBATION): inactive; negative
- mutagenic call (Test System: AMES SALMONELLA TYPHIMURIUM, Strain/Indicator: TA2638, Metabolic Activation: NONE, Method: STANDARD PLATE): inactive; negative
- mutagenic call (Test System: E. COLI, Strain/Indicator: WP2 (PKM101), Metabolic Activation: NONE, Method: STANDARD PLATE): inactive; negative
- mutagenic call (Test System: E. COLI, Strain/Indicator: WP2 UVRA (PKM101), Metabolic Activation: NONE, Method: STANDARD PLATE): inactive; negative
- mutagenic call (Test System: E. COLI, Strain/Indicator: WP2UVRA/PKM101, Metabolic Activation: NONE, Method: PREINCUBATION): active; positive
- mutagenic call (Test System: E. COLI, Strain/Indicator: WP2UVRA, Metabolic Activation: NONE, Method: PREINCUBATION): inactive; negative
- mutagenic call (Test System: E. COLI, Strain/Indicator: WP2UVRA, Metabolic Activation: RAT, LIVER, S-9, PHENOBARBITAL AND BETA-NAPHTHOFLAVONE, Method: PREINCUBATION): inactive; negative

Compound: CN(C)CC(=O)O
- mutagenic call [8]: inactive; negative
- mutagenic call [9]: inactive; negative

Compound: CCCCCC/C=C\CCCCCCOC(C)=O
- mutagenic call [10]: inactive; negative
- mutagenic call (Test System: AMES SALMONELLA TYPHIMURIUM, Strain/Indicator: TA98, Metabolic Activation: RAT, LIVER, S-9, Method: STANDARD PLATE): inactive; negative
- mutagenic call [8]: inactive; negative
- mutagenic call (Test System: AMES SALMONELLA TYPHIMURIUM, Strain/Indicator: TA100, Metabolic Activation: RAT, LIVER, S-9, Method: STANDARD PLATE): inactive; negative
- mutagenic call [4]: inactive; negative
- mutagenic call (Test System: AMES SALMONELLA TYPHIMURIUM, Strain/Indicator: TA102, Metabolic Activation: RAT, LIVER, S-9, Method: STANDARD PLATE): inactive; negative

Compound: CN1CCC=C2c3nc(N)sc3CCC21 (centres undefined)
- mutagenic call [10]: inactive; negative
- mutagenic call [11]: active; positive
- mutagenic call [8]: inactive; negative
- mutagenic call [9]: active; positive
- mutagenic call (Test System: AMES SALMONELLA TYPHIMURIUM, Strain/Indicator: TA1535, Metabolic Activation: NONE, Method: STANDARD PLATE): inactive; negative
- mutagenic call (Test System: AMES SALMONELLA TYPHIMURIUM, Strain/Indicator: TA1535, Metabolic Activation: RAT, LIVER, S-9, AROCLOR 1254, Method: STANDARD PLATE): inactive; negative
- mutagenic call (Test System: AMES SALMONELLA TYPHIMURIUM, Strain/Indicator: TA1537, Metabolic Activation: NONE, Method: STANDARD PLATE): inactive; negative
- mutagenic call (Test System: AMES SALMONELLA TYPHIMURIUM, Strain/Indicator: TA1537, Metabolic Activation: RAT, LIVER, S-9, AROCLOR 1254, Method: STANDARD PLATE): inactive; negative
- mutagenic call [12]: inactive; negative

Compound: O=CN(O)c1ccc([N+](=O)[O-])cc1
- mutagenic call (Test System: AMES SALMONELLA TYPHIMURIUM, Strain/Indicator: TA98(NR), Metabolic Activation: NONE, Method: STANDARD PLATE): active; positive
- mutagenic call (Test System: AMES SALMONELLA TYPHIMURIUM, Strain/Indicator: TA98(NR), Metabolic Activation: RAT, LIVER, S-9, AROCLOR 1254, Method: STANDARD PLATE): active; positive
- mutagenic call [10]: active; positive
- mutagenic call [11]: active; positive
- mutagenic call (Test System: AMES SALMONELLA TYPHIMURIUM, Strain/Indicator: TA1538(NR), Metabolic Activation: NONE, Method: STANDARD PLATE): active; positive
- mutagenic call (Test System: AMES SALMONELLA TYPHIMURIUM, Strain/Indicator: TA1538(NR), Metabolic Activation: RAT, LIVER, S-9, AROCLOR 1254, Method: STANDARD PLATE): active; positive
- mutagenic call [12]: active; positive
- mutagenic call (Test System: AMES SALMONELLA TYPHIMURIUM, Strain/Indicator: TA1538, Metabolic Activation: RAT, LIVER, S-9, AROCLOR 1254, Method: STANDARD PLATE): active; positive

Compound: O=c1[nH]c(=O)n([C@H]2C[C@H](O)[C@@H](CO)O2)cc1I
- mutagenic call (Test System: AMES SALMONELLA TYPHIMURIUM, Strain/Indicator: TA97, Metabolic Activation: NONE, Method: PREINCUBATION): inactive; negative
- mutagenic call (Test System: AMES SALMONELLA TYPHIMURIUM, Strain/Indicator: TA97, Metabolic Activation: RAT, LIVER, S-9, AROCLOR 1254, Method: PREINCUBATION): inactive; negative
- mutagenic call [1]: inactive; negative
- mutagenic call (Test System: AMES SALMONELLA TYPHIMURIUM, Strain/Indicator: TA98, Metabolic Activation: RAT, LIVER, S-9, AROCLOR 1254, Method: PREINCUBATION): inactive; negative
- mutagenic call [2]: inactive; negative
- mutagenic call (Test System: AMES SALMONELLA TYPHIMURIUM, Strain/Indicator: TA100, Metabolic Activation: RAT, LIVER, S-9, AROCLOR 1254, Method: PREINCUBATION): inactive; negative
- mutagenic call [3]: inactive; negative
- mutagenic call (Test System: AMES SALMONELLA TYPHIMURIUM, Strain/Indicator: TA102, Metabolic Activation: RAT, LIVER, S-9, AROCLOR 1254, Method: PREINCUBATION): inactive; negative
- mutagenic call [5]: inactive; negative
- mutagenic call (Test System: AMES SALMONELLA TYPHIMURIUM, Strain/Indicator: TA104, Metabolic Activation: RAT, LIVER, S-9, AROCLOR 1254, Method: PREINCUBATION): inactive; negative
- mutagenic call [6]: inactive; negative
- mutagenic call (Test System: AMES SALMONELLA TYPHIMURIUM, Strain/Indicator: TA1535, Metabolic Activation: RAT, LIVER, S-9, AROCLOR 1254, Method: PREINCUBATION): inactive; negative
- mutagenic call [7]: inactive; negative
- mutagenic call (Test System: AMES SALMONELLA TYPHIMURIUM, Strain/Indicator: TA1537, Metabolic Activation: RAT, LIVER, S-9, AROCLOR 1254, Method: PREINCUBATION): inactive; negative
- mutagenic call (Test System: AMES SALMONELLA TYPHIMURIUM, Strain/Indicator: TA1538, Metabolic Activation: NONE, Method: PREINCUBATION): inactive; negative
- mutagenic call (Test System: AMES SALMONELLA TYPHIMURIUM, Strain/Indicator: TA1538, Metabolic Activation: RAT, LIVER, S-9, AROCLOR 1254, Method: PREINCUBATION): inactive; negative
- mutagenic call (Test System: CHINESE HAMSTER V-79, Strain/Indicator: V-79/8-AZAGUANINE, Metabolic Activation: NONE): active; positive
- mutagenic call (Test System: UDS RODENT HEPATOCYTES, Strain/Indicator: THY INCORP, Metabolic Activation: NONE): inactive; negative

Compound: COC(=O)c1cc2ccc3cccnc3c2[nH]1
- mutagenic call [10]: inactive; negative
- mutagenic call (Test System: E. COLI, Strain/Indicator: WP2 TM9, Metabolic Activation: NONE, Method: STANDARD PLATE): inactive; negative
